Data published in PubChem BioAssay (NCI).
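How tested: cells in 96-well plates exposed to compound for 48 hours at five concentrations. GI50 is the concentration that inhibits growth by half. TGI denotes the concentration required for complete inhibition of growth.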

Assays:
Test in all cases: growth of human tumour cells (NCI), 48 h
NCI-H226 lung = system: NCI-H226 lung
SF-539 CNS = system: SF-539 CNS
SN12C renal = system: SN12C renal
OVCAR-5 ovarian = system: OVCAR-5 ovarian
OVCAR-4 ovarian = system: OVCAR-4 ovarian
KM12 colon = system: KM12 colon
HOP-62 NSCLC = system: HOP-62 NSCLC
BT-549 breast = system: BT-549 breast
HCT-116 colon = system: HCT-116 colon
CAKI-1 renal = system: CAKI-1 renal

Compound `CCCCCCCCCCCCSC(=N)N` has a GI50 (NCI-H226 lung) of 18.5 µM, a TGI (NCI-H226 lung) of 44.5 µM and a GI50 (SF-539 CNS) of 15.2 µM. The TGI (SF-539 CNS) was 32 µM, the GI50 (SN12C renal) was 8.21 µM and the TGI (SN12C renal) was 21.4 µM. It also gave a GI50 (OVCAR-5 ovarian) of 12.4 µM, a TGI (OVCAR-5 ovarian) of 25.3 µM and a GI50 (OVCAR-4 ovarian) of 7.93 µM. For the same compound, the TGI (OVCAR-4 ovarian) was 27.9 µM, the GI50 (KM12 colon) was 3.33 µM and the TGI (KM12 colon) was 11.3 µM. It also gave a GI50 (HOP-62 NSCLC) of 10.7 µM, a TGI (HOP-62 NSCLC) of 28.9 µM and a GI50 (BT-549 breast) of 18.9 µM. It also gave a TGI (BT-549 breast) of 47.1 µM, a GI50 (HCT-116 colon) of 3.86 µM and a TGI (HCT-116 colon) of 14.9 µM. For the same compound, the GI50 (CAKI-1 renal) was 3.79 µM and the TGI (CAKI-1 renal) was 14.4 µM.

`c1ccc(-c2nc(-c3ccccc3)c(-c3ccccc3)[nH]2)cc1` showed a TGI (NCI-H226 lung) of over 100 µM, a TGI (SF-539 CNS) of over 100 µM and a TGI (SN12C renal) of over 100 µM. For the same compound, the TGI (OVCAR-5 ovarian) was over 100 µM, the TGI (OVCAR-4 ovarian) was over 100 µM and the TGI (KM12 colon) was over 100 µM. The TGI (HOP-62 NSCLC) was over 100 µM, the TGI (BT-549 breast) was over 100 µM and the TGI (HCT-116 colon) was over 100 µM. The TGI (CAKI-1 renal) was over 100 µM.

`NC1=NC(c2ccc(Cl)cc2)C2=C(N1)/C(=C/c1ccc(Cl)cc1)CCC2` (stereo not given) showed a GI50 (NCI-H226 lung) of 4.25 µM, a TGI (NCI-H226 lung) of 11.8 µM and a GI50 (SF-539 CNS) of 19.9 µM. The TGI (SF-539 CNS) was over 78 µM, the GI50 (SN12C renal) was 17.3 µM and the TGI (SN12C renal) was 50.4 µM. For the same compound, the GI50 (OVCAR-5 ovarian) was 25.2 µM, the TGI (OVCAR-5 ovarian) was 63.3 µM and the GI50 (OVCAR-4 ovarian) was 13.9 µM. For the same compound, the TGI (OVCAR-4 ovarian) was 76.5 µM, the GI50 (KM12 colon) was 2.32 µM and the TGI (KM12 colon) was 5.27 µM. The GI50 (HOP-62 NSCLC) was 15 µM, the TGI (HOP-62 NSCLC) was 53 µM and the GI50 (BT-549 breast) was 2.74 µM. For the same compound, the TGI (BT-549 breast) was 10.7 µM, the GI50 (HCT-116 colon) was 1.67 µM and the TGI (HCT-116 colon) was 3.22 µM. For the same compound, the GI50 (CAKI-1 renal) was 13.6 µM and the TGI (CAKI-1 renal) was over 96.7 µM.

Work on `Cn1cc(-c2cnc3ccc4ccc(CS(=O)(=O)NCc5ccccn5)cc4c(=O)c3c2)cn1` yielded a GI50 (NCI-H226 lung) of 14.8 µM, a TGI (NCI-H226 lung) of 36 µM and a GI50 (SF-539 CNS) of 16.9 µM. For the same compound, the TGI (SF-539 CNS) was 41.2 µM, the GI50 (SN12C renal) was 19 µM and the TGI (SN12C renal) was over 93.3 µM. The GI50 (OVCAR-5 ovarian) was 29.5 µM, the TGI (OVCAR-5 ovarian) was over 100 µM and the GI50 (OVCAR-4 ovarian) was 10.3 µM. The TGI (OVCAR-4 ovarian) was 68.1 µM, the GI50 (KM12 colon) was 10.5 µM and the TGI (KM12 colon) was 52 µM. It also gave a GI50 (HOP-62 NSCLC) of 17.6 µM, a TGI (HOP-62 NSCLC) of over 100 µM and a GI50 (BT-549 breast) of 12.4 µM. For the same compound, the TGI (BT-549 breast) was 42.6 µM, the GI50 (HCT-116 colon) was 16.3 µM and the TGI (HCT-116 colon) was 54.1 µM. The GI50 (CAKI-1 renal) was 14.2 µM and the TGI (CAKI-1 renal) was over 100 µM.

`COc1cccc(/C=C/c2cnc3ccccc3n2)c1OC` gave a TGI (NCI-H226 lung) of over 100 µM, a TGI (SF-539 CNS) of over 100 µM and a TGI (SN12C renal) of over 100 µM. For the same compound, the TGI (OVCAR-5 ovarian) was over 100 µM, the TGI (OVCAR-4 ovarian) was over 100 µM and the TGI (KM12 colon) was over 100 µM. It also gave a TGI (HOP-62 NSCLC) of 64.9 µM, a TGI (BT-549 breast) of 53.1 µM and a TGI (HCT-116 colon) of over 100 µM. The TGI (CAKI-1 renal) was over 100 µM.

`NS(=O)(=O)c1cccc(N=Cc2c(O)[nH]c3ccccc23)c1` showed a GI50 (NCI-H226 lung) of over 25 µM, a TGI (NCI-H226 lung) of over 25 µM and a GI50 (SF-539 CNS) of over 25 µM. The TGI (SF-539 CNS) was over 25 µM, the GI50 (SN12C renal) was over 25 µM and the TGI (SN12C renal) was over 25 µM. For the same compound, the GI50 (OVCAR-5 ovarian) was over 25 µM, the TGI (OVCAR-5 ovarian) was over 25 µM and the GI50 (OVCAR-4 ovarian) was over 25 µM. The TGI (OVCAR-4 ovarian) was over 25 µM, the GI50 (KM12 colon) was 8.04 µM and the TGI (KM12 colon) was over 25 µM. For the same compound, the GI50 (HOP-62 NSCLC) was over 25 µM, the TGI (HOP-62 NSCLC) was over 25 µM and the GI50 (BT-549 breast) was over 25 µM. The TGI (BT-549 breast) was over 25 µM, the GI50 (HCT-116 colon) was over 25 µM and the TGI (HCT-116 colon) was over 25 µM. It also gave a GI50 (CAKI-1 renal) of 13.9 µM and a TGI (CAKI-1 renal) of over 25 µM.

For `Cc1ccc(SC2=CC(=O)c3nc4ccccc4c4ccnc2c34)cc1`, the GI50 (NCI-H226 lung) was over 61.9 µM, the TGI (NCI-H226 lung) was over 100 µM and the GI50 (SF-539 CNS) was 33.9 µM. The TGI (SF-539 CNS) was 83 µM, the GI50 (SN12C renal) was 66.6 µM and the TGI (SN12C renal) was over 100 µM. It also gave a GI50 (OVCAR-5 ovarian) of over 79.9 µM, a TGI (OVCAR-5 ovarian) of over 100 µM and a GI50 (OVCAR-4 ovarian) of 17.4 µM. For the same compound, the TGI (OVCAR-4 ovarian) was 32.6 µM, the GI50 (KM12 colon) was 20.9 µM and the TGI (KM12 colon) was 47.5 µM. The GI50 (HOP-62 NSCLC) was 97.9 µM, the TGI (HOP-62 NSCLC) was over 100 µM and the GI50 (BT-549 breast) was over 62.9 µM. The TGI (BT-549 breast) was over 100 µM, the GI50 (HCT-116 colon) was 22.7 µM and the TGI (HCT-116 colon) was over 56.8 µM. The GI50 (CAKI-1 renal) was 25.5 µM and the TGI (CAKI-1 renal) was 63.8 µM.
